From ChEMBL document CHEMBL1201862, “PubChem BioAssay data set” (2004)
The source made the active and inactive calls.

Key:
[1] = A549 cell cytotoxicity, dose response, cytotoxicity control, plate reader, cherry-pick, antagonist series (AID 743412); type: functional, cell-based
[2] = HepG2 cell cytotoxicity, dose response, cytotoxicity control, plate reader, cherry-pick, antagonist series (AID 743416); type: functional, cell-based
[3] = target: Genome polyprotein (dengue virus type 2, UniProt P29990); assay: Dengue-2 NS5 methyltransferase inhibitors, primary screen, biochemical, confirmation dose response (AID 588689); type: functional
[4] = tested on: Vero; assay: cells; type: functional; conditions: Chlorocebus sabaeus
[5] = cytotoxicity in HEK-293T cells, dose response, cytotoxicity control for TCR NF-kB inhibitor project, luminescence, T-cell screen hits (AID 489026); type: functional, cell-based;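 note: cells exposed to compound about 14 hours before the viability readout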
[6] = growth suppression of PTEN-null colon cells, dose response, cell-based, HCT116 PTEN knockout (AID 1047); type: functional;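 note: HCT116 colon tumor cells with PTEN knocked out; cells exposed to compound for 60 hours before readout; potency for loss of cell viability measured by luminescence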
[7] = growth suppression of beta-catenin-knockout colon cells, dose response, cell-based, HCT116, human colon tumor (AID 1045); type: functional;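 note: HCT116 colon tumor cells with beta catenin knocked out; cells exposed to compound for 60 hours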
[8] = HeLa cell cytotoxicity, dose response, cytotoxicity control for MgcRacGAP inhibitor project (AID 624300); type: functional
[9] = Luminescence Cell-Based Dose Confirmation HTS to Identify Activators of 5'UTR Stem-Loop Driven Alpha-Synuclein mRNA Translation in H4 Neuroglioblastoma Cells. [Related pubchem assays: 1829 (Project Summary), 1814 (Primary HTS)]; type: functional
[10] = Luminescence Cell-Based Dose Response HTS to Identify Activators of Luciferase Translation or Activity in H4 […] Cells. [Related pubchem assays: 1829 (Project Summary), 1814 (Primary HTS)]; type: functional
[11] = tested on: H4; assay: Luminescence Cell-Based Dose Response HTS to Identify Activators of 5'UTR Stem-Loop Driven Prion Protein mRNA Translation in H4 Neuroglioblastoma Cells. [Related pubchem assays: 1829 (Project Summary), 1814 (Primary HTS)]; type: functional; conditions: Homo sapiens
[12] = target: Nonstructural protein 1 (Influenza A virus, UniProt Q194T2); type: functional, Influenza A virus (A/California/07/2009(H1N1))
[13] = target: Estrogen receptor beta (Homo sapiens, UniProt Q92731);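 note: recombinant ER-beta bound to coactivator SRC1 peptide in presence of estradiol agonist; inhibitors block coactivator peptide binding and lower the FRET signal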
[14] = Luminescence Cell-Based Dose Response HTS to Identify Inhibitors of 5'UTR Stem-Loop Driven Prion Protein mRNA Translation in H4 Neuroglioblastoma Cells. [Related pubchem assays: 1827 (Project Summary), 1813 (Primary HTS)]; type: functional
[15] = inhibitors of SNCA 5'UTR-driven reporter translation, confirmation, H4 neuroglioma cells, luminescence (AID 1988); type: functional, cell-based
[16] = microbe, parasite or virus in culture; type: functional; conditions: Mycobacterium tuberculosis
[17] = LGR2 antagonists, dose response, cell-based, HEK293, CRE-luciferase reporter, cherry pick, set 2 (AID 743343); type: functional;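 note: transfected cells were stimulated with diluted bursicon conditioned medium after compound addition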
[18] = MC4R antagonists, dose response, counter-screen for LGR2 antagonist project, cell-based, plate reader, cherry pick (AID 743444); type: functional;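 note: transfected HEK 293 cells stimulated with alpha-MSH peptide; potency of inhibitors of the alpha-MSH evoked signal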
[19] = inhibitors of intracellular T. cruzi replication, confirmation, NIH3T3 host cells, beta-gal luminescence (AID 2044); type: functional, cell-based;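 note: intracellular parasites grown in NIH/3T3 mouse fibroblasts as host cells; luminescent beta-galactosidase reporter signal from transgenic T. cruzi replicating inside host cells; inhibitors lower the luminescence signal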
[20] = cytotoxicity toward NIH3T3 fibroblasts, dose response, counter-screen, cell-based, ATP luminescence, mouse fibroblasts (AID 2010); type: functional;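 note: cells exposed to compound for about 90 hours before reading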
[21] = target: T1, Carboxy-terminal domain RNA polymerase II polypeptide A small phosphatase 1 (Homo sapiens, UniProt Q9GZU7); assay: inhibitors of CTDSP1, concentration-response testing, biochemical assay, absorbance-based, actives from ultra-high-throughput screening (AID 540297); type: functional
T1 sequence (Q9GZU7 whole entry): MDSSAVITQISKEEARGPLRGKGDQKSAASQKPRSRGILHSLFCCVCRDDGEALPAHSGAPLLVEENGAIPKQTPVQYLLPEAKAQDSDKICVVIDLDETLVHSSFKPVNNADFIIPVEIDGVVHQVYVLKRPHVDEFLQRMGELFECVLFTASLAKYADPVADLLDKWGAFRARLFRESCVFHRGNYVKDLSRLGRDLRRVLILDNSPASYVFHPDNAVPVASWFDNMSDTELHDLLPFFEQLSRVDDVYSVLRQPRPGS

[22] = target: T2, High affinity choline transporter 1 (Homo sapiens, UniProt Q9GZV3); assay: CHT inhibitors, dose response, cell-based, 5-point CRC, membrane potential dye (AID 504840); type: functional
T2 sequence (Q9GZV3 whole entry): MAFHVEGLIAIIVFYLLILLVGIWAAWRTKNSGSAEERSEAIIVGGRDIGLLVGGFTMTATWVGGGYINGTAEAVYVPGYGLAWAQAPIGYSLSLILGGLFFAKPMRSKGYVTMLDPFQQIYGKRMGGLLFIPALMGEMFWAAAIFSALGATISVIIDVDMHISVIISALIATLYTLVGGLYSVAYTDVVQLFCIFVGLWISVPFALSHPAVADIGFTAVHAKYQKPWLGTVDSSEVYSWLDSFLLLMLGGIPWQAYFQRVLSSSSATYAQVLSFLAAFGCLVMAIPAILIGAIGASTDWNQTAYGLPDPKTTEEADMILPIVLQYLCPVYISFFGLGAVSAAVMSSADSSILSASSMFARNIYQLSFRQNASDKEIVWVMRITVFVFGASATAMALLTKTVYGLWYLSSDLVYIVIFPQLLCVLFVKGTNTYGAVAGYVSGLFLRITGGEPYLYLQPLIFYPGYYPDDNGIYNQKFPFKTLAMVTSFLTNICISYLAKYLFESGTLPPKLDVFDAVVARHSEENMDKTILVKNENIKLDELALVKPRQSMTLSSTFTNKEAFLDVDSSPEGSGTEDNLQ

[23] = Luminescence Cell-Based Dose Retest to Confirm Inhibitors of Cancer Stem Cells. [Related pubchem assays (depositor defined):AID2717, AID2721]; type: functional; conditions: Homo sapiens
[24] = target: T3, Rac GTPase-activating protein 1 (Homo sapiens, UniProt Q9H0H5); assay: MgcRacGAP GTPase-activating activity inhibitors, confirmation, biochemical, ADP Hunter fluorescence, primary and confirmatory (AID 624330); type: functional
T3 sequence (Q9H0H5 whole entry): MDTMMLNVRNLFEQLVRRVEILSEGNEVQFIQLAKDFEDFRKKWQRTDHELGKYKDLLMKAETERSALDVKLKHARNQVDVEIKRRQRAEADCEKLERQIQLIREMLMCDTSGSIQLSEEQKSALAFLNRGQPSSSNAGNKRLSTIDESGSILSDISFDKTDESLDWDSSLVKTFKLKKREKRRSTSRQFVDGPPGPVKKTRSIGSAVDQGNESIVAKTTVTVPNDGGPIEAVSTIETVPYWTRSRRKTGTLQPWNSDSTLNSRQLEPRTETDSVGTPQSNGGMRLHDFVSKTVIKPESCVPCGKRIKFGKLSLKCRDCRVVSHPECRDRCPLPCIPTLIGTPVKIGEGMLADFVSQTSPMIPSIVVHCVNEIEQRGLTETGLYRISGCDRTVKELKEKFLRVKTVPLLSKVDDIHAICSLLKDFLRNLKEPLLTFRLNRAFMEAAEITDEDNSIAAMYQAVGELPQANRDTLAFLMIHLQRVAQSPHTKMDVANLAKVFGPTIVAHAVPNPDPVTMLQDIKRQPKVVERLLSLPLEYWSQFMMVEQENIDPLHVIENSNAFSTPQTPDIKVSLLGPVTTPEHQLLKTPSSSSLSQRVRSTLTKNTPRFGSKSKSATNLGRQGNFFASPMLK

[25] = tested on: P388/ADR; assay: cells; type: functional; conditions: Mus musculus
[26] = tested on: SN12K1; assay: cells; type: functional; conditions: Homo sapiens
[27] = inhibitors of clade B AD8 Env fusion, dose response, cell-based, cherry-pick (AID 652062); type: functional;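 note: luciferase signal from cell-cell fusion driven by HIV-1 clade B AD8 Env; potency is for inhibitors of fusion seen as a drop in luminescence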
[28] = cells; type: functional, cell-based
[29] = cells; type: functional, cell-based; remark: listed apart in the source
[30] = tested on: INS1; assay: beta cell apoptosis inhibitors, cytokine rescue, dose response, luminescence, retest (AID 449756); type: functional, cell-based; conditions: Rattus norvegicus;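 note: cell death triggered by IL-1 beta plus TNF-alpha plus IFN-gamma mixture; protective hits raise ATP signal compared with cytokine alone wells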
[31] = target: Cytochrome P450 2C19 (Homo sapiens, UniProt P33261); assay: Cytochrome panel assay with activity outcomes. Panel member name: p450-cyp2c19 Compounds with AC50 equal or less than 10 uM are considered active; type: functional; conditions: read-out: AC50
[32] = target: T4, Cytochrome P450 1A2 (Homo sapiens, UniProt P05177);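 note: PubChem cytochrome P450 panel assay, CYP1A2 panel member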
T4 sequence (P05177 whole entry): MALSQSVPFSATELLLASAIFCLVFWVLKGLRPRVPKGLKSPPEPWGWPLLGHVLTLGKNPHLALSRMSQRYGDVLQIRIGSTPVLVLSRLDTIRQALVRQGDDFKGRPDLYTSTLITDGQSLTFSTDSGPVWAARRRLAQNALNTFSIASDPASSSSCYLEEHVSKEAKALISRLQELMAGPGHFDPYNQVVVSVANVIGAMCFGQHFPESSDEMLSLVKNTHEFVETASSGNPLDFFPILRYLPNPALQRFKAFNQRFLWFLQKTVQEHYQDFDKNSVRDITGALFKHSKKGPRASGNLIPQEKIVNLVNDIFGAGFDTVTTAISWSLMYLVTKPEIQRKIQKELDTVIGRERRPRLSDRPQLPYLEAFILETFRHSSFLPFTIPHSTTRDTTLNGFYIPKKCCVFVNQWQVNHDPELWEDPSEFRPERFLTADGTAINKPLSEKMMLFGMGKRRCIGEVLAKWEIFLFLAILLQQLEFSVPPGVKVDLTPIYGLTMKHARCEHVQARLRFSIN

Chain of Estrogen receptor beta (Q92731 whole entry): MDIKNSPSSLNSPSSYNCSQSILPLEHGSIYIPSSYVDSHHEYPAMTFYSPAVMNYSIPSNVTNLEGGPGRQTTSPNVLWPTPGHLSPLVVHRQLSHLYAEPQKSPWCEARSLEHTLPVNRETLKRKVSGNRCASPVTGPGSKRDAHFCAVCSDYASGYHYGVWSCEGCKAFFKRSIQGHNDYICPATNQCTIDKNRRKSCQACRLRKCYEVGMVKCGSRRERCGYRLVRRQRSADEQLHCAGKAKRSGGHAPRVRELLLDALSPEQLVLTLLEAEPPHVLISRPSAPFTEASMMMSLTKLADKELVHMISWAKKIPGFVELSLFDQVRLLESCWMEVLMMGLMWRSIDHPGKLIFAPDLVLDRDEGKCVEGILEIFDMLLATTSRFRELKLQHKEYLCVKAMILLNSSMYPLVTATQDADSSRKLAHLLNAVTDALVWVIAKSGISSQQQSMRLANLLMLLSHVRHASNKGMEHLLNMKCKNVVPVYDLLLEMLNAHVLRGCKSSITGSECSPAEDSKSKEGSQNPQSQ
Chain of Genome polyprotein (P29990 2492-3391 limits assumed): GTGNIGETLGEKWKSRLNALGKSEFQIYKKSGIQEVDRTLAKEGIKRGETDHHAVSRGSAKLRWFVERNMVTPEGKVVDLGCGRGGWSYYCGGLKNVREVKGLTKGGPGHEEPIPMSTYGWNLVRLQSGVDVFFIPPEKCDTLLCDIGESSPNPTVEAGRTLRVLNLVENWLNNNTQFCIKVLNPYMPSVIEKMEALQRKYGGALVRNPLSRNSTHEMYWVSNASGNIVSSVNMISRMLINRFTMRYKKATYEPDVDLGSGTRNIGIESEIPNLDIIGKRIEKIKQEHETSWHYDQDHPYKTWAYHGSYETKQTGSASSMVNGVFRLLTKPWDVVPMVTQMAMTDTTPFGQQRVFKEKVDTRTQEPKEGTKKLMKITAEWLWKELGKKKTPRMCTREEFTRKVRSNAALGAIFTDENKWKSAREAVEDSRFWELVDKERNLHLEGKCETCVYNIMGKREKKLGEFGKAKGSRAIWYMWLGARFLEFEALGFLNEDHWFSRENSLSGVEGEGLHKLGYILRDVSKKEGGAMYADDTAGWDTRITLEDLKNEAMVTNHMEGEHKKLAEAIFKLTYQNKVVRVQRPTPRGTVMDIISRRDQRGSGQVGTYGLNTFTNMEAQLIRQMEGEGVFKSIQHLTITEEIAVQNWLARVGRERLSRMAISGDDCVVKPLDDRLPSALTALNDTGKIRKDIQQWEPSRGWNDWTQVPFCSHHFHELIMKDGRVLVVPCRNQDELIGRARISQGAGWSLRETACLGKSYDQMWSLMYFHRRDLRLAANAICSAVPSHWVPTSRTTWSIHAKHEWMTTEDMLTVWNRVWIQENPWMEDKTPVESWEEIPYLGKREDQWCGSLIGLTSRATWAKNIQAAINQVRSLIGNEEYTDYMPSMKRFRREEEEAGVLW
Chain of Nonstructural protein 1 (Q194T2 whole entry): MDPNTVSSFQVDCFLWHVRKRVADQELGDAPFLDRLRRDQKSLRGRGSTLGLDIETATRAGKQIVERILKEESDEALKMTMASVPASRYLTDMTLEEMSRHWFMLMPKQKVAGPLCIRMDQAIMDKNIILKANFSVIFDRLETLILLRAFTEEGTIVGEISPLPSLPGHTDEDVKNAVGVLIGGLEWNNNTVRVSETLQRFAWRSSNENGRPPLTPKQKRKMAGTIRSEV
Chain of Cytochrome P450 2C19 (P33261 whole entry): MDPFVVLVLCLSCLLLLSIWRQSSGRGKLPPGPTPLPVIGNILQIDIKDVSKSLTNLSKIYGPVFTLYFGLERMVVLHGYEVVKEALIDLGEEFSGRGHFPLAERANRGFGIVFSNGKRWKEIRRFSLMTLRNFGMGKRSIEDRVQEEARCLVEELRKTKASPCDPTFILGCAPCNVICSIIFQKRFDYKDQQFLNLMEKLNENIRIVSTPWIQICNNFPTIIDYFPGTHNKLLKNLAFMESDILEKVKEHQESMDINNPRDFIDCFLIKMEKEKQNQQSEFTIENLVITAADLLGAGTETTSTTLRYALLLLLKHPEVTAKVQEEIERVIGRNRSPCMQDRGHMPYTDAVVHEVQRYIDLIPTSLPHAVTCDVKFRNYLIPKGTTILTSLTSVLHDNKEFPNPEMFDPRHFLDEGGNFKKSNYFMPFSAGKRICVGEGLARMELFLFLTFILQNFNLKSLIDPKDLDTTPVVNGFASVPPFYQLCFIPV

O=C(c1ccc2c(c1)OCCO2)C1CCN(S(=O)(=O)c2ccc(F)cc2)CC1
AC50 [1]: > 52 µM (inactive) | AC50 [2]: > 52 µM (inactive)

CC(=O)n1cc(C=C2C(=O)NC(=O)NC2=O)c2ccccc21
IC50 [3]: 42.8 µM (active)

O=C(Nc1ccccc1C(F)(F)F)N1CCN(c2ccc3nnc(-c4ccc(F)cc4)n3n2)CC1
CC50 [4]: > 25 µM (active)

COc1cc(OC)c(NC(=O)C(=O)CC(=O)c2ccc(C)cc2C)cc1Cl
CC50 [4]: 9.4 µM (active)

O=C(Nc1cccc2ccccc12)OC1C=CS(=O)(=O)C1 (stereo not drawn)
IC50 [5]: > 80 µM (inactive)

Cc1ccc(-c2[nH]c3ccccc3c2SCCNC(=O)c2ccc(S(=O)(=O)N3CCOCC3)cc2)cc1
EC50 [6]: 112 µM (active) | EC50 [7]: 152 µM (active)

O=C(/C=C/c1ccc([N+](=O)[O-])cc1)/C=C/c1ccco1
CC50 [8]: 100 µM (active)

COc1cccc(/C=C2/C(=O)NN(c3ccccc3)C2=O)c1
IC50 [3]: 45.8 µM (active)

Cc1ccc(C)c(CSc2nc(O)c3c[nH]nc3n2)c1
IC50 [5]: > 80 µM (inactive)

CN1C(=O)/C(=C2\SC(N)=NC2=O)c2ccccc21
EC50 [6]: 33.2 µM (active) | EC50 [7]: 44.1 µM (active)

CC#CC(=O)N1CCC(n2nccc2NC(=O)c2ccc3c(c2)OCO3)CC1
IC50 [5]: > 80 µM (inactive)

O=C(CN1C(=O)COc2ccccc21)Nc1ccc(F)cc1
EC50 [9]: 11.9 µM (active) | EC50 [10]: 13.8 µM (active) | EC50 [11]: 113 µM (active) | IC50 [12]: 3.73 µM (active)

CN1CCCC(OC(=O)c2ccc3c(c2)OCCO3)C1 (stereo not drawn)
IC50 [13]: > 50 µM (not active)

COCCCNc1nc2c([nH]1)c(=O)[nH]c(=O)n2C
IC50 [13]: > 50 µM (not active)

CCCNCC1COc2ccccc2O1 (stereo not drawn)
IC50 [13]: 4.1 µM (active)

COc1ccc(-c2cc3nc(CCl)nc(O)c3s2)cc1
EC50 [14]: 11.8 µM (active) | EC50 [15]: 11 µM (active) | CC50 [16]: 6.88 µM (active) | AC50 [1]: 16.8 µM (active) | AC50 [2]: 17.1 µM (active) | AC50 [17]: 6.33 µM (active) | AC50 [18]: 8.71 µM (active)

Cc1cccc2sc(NC(=O)C3CCN(S(=O)(=O)c4cc([N+](=O)[O-])ccc4Cl)CC3)nc12
EC50 [19]: 0.63 µM (active) | EC50 [20]: > 30 µM (not active) | IC50 [21]: 3.44 µM (active)

CCOC(=O)CN1CC23C=CC(O2)C(C(=O)Nc2cc(OC)ccc2OC)C3C1=O (stereo not drawn)
IC50 [13]: > 50 µM (not active)

CCn1cc(/C=C(\NC(=O)c2ccccc2F)C(=O)NCCCn2ccnc2)c2ccccc21
IC50 [22]: 14.5 µM (active)

Cc1ccc(-c2cc(C(=O)N3CCN(c4ccc(O)cc4)CC3)c3ccccc3n2)cc1
AC50 [23]: 6.6 µM (active) | CC50 [8]: 100 µM (active) | IC50 [24]: 88 µM (active)

O=C(Cn1ncc2c3ccccc3n(Cc3ccccc3)c2c1=O)NCCN1CCOCC1
IC50 [22]: 11.2 µM (active)

O=C(OCc1nc(O)c2sccc2n1)c1ccc(Cl)s1
IC50 [22]: 12.6 µM (active)

COC1C(OC(=O)/C=C/C=C/C=C/C=C/C(=O)O)CCC2(CO2)C1C1(C)OC1CC=C(C)C (stereo not drawn)
GI50 [25]: 13.2 µM (inactive) | GI50 [26]: 16.1 µM (inactive)

O=C(C[C@@H]1C[C@H]2c3cc(NC(=O)Nc4ccccc4)ccc3O[C@H]2[C@H](CO)O1)NCc1cccnc1
AC50 [27]: 1.64 µM (active)

N#C[C@@H]1[C@H](c2ccc(C#Cc3cccc(F)c3)cc2)[C@@H](CO)N1C(=O)C1CCCC1
AC50 [2]: 27.1 µM (active) | AC50 [17]: 16.5 µM (active) | AC50 [18]: 8.4 µM (active)

CCN(CC)c1ccc(/C=N/NC(=O)c2cccc(S(=O)(=O)Nc3ccccc3OC)c2)c(O)c1
EC50 [28]: 2.89 µM (active) | EC50 [29]: 85.3 µM (active) | IC50 [5]: > 80 µM (inactive) | AC50 [30]: 0.237 µM (active)

O=c1cc(-c2ccccc2)c2c(O)cc(O)cc2o1
IC50 [22]: 13.7 µM (active)

CN(C)CCCN1c2ccc(O)cc2Sc2ccc(Cl)cc21 [7-HYDROXYCHLORPROMAZINE]
AC50 [31]: 0.794 µM (inconclusive) | CC50 [8]: 84.5 µM (active) | IC50 [24]: 11.6 µM (active) | AC50 [32]: 0.631 µM (inconclusive)
